Experimental data reported in US12440475B2, “Hodgkin lymphoma therapy” (priority 2016, dated 2025).

Assays:
L428 = assay: Clonogenic survival in methylcellulose, L428; type: cell-based, human; conditions: very low doses (0.1 and 0.5 μmol)
Procedure: In all examples, the human Hodgkin lymphoma-derived cell lines L428, L428-c, KMH2, L591, L540, L1236, HDLM2 and SUP-HD were obtained from Dr Steffen Junker (Aarhus University Denmark). All cell lines were cultured in Gibco RPMI 1640 medium supplemented with Glutamax, 10% FBS and antibiotics at 37° C. […] The immunophenotype, P53 status and MSI characterization of the Hodgkin lymphoma cell lines was determined using anti-CD30, CD15, CD20 and CD14 antibodies.
This test was performed on four Hodgkin lymphoma cell lines (L428, L428s, KMH2 and L540). Each was cultured with EDO-S101 at doses of 0, 0.1, 0.5, 1, 10 and 20 μmol in DMSO. The cell lines were cultured in methylcellulose (Stem cell Technologies) at a concentration of 10^5/ml at 37° C. and 5% CO2. The surviving fraction was determined by measuring the viability of colonies generated before and after exposure. Only colonies with more than 50 cells were counted. Each data point represents the average and SD from three independent experiments performed in triplicate.

L428 cells = assay: L428 xenograft in NSG mice, CD30 immunofluorescence of cytospin slides; type: in vivo; set-up: key to Spleen, red pulp activation, diffuse (CD30 staining score per animal) / Liver, Tumour cell infiltration (CD30 staining score per animal) / Bone marrow (CD30 staining score per animal): 0: without any staining; minimal, <1% staining; 2: mild, 1% staining; 3: moderate, <10% staining; marked, 10-40% staining; 5: severe, >40% of cells staining
From the text: Immunodeficient NOD-SCID-gammac−/− (NSG) mice aged 5 to 6 weeks were purchased from Charles River (NOD.Cg-Prkdcscid II2rgtm1Wjl/SzJ). The mice arrived two weeks before the beginning of the experiments and were housed in micro-isolator cages during the entire course of the study. Immediately prior to the injection of Hodgkin lymphoma cells, mice were exposed to 3 Gy gamma irradiation using an IBL637 ^137Cs irradiator at a dose rate of 0.61 Gy/min. From 10^3 to 10^6 cells, either from the original cell lines or following amplification, were injected intravenously via the retro-orbital sinus. The mice were sacrificed by cervical dislocation and different organs were analysed and tumoural infiltration examined using multiple techniques.
Two independent experiments were performed to investigate the dose-effect of EDO-S101 in NSG mice eight weeks after xenografting with L428 cells as in Example 8. The aim of the protocol shown in FIG. […]
The mice were sacrificed by cervical dislocation. The sampled organs consisted of the eyes (site of injection), liver, spleen and bone marrow. Following dissection of different organs, including tumours, the first portion was used for flow cytometry (FACS) and cytogenetic analyses while the second was fixed in 4% paraformaldehyde (PFA) for immunohistochemistry (IHC). To obtain a single cell suspension, the tissues were first cut into pieces. Thereafter, the cells were physically disaggregated using an 80 μm nylon cell strainer and filtered a second time through a 70 μm nylon cell strainer (BD Biosciences, Erembodegem, Belgium).
Cells were cytospun onto poly-L-lysine-coated glass slides at 700 rpm for 4 min, fixed with 10% formalin for 10 min, and treated with 0.25% Triton X-100 solution for 10 min. After blocking with 5% bovine serum albumin (Sigma), the cells were incubated with an anti-CD30 antibody (DAKO A/S, Glostrup, Denmark). Then, cells were treated with Cyanine 3 anti-mouse IgG (Invitrogen, Carlsbad, CA). As a negative control, staining was carried out in the absence of primary antibody. The L428-s cell line served as positive control.
Individual microscopic findings following immunofluorescence CD30 staining of cytopsin slides: “0”=without any staining; “1”=minimal, <1% staining; “2”=mild, 1% staining; “3”=moderate, <10% staining; “4”=marked, 10-40% staining; “5”=severe, >40% of cells staining.

Cn1c(CCCCCCC(=O)NO)nc2cc(N(CCCl)CCCl)ccc21 [EDO-S101]
clones observed (clonogenic survival) (L428): only macrophagic clones being observed
Spleen, red pulp activation, diffuse (CD30 staining score per animal) (L428 cells; 1*60 mg/kg): 0
Liver, Tumour cell infiltration (CD30 staining score per animal) (L428 cells; 1*60 mg/kg, 60 mg/kg): 0
Liver, Tumour cell infiltration (CD30 staining score per animal) (L428 cells; 1*80 mg/kg): 0
Spleen, red pulp activation, diffuse (CD30 staining score per animal) (L428 cells; 1*80 mg/kg): 0
Bone marrow (CD30 staining score per animal) (L428 cells; 2*60 mg/kg, 60 mg/kg): 0
Liver, Tumour cell infiltration (CD30 staining score per animal) (L428 cells; 2*60 mg/kg, 60 mg/kg): 0
Spleen, red pulp activation, diffuse (CD30 staining score per animal) (L428 cells; 2*60 mg/kg, 60 mg/kg): 0
tumour cells in organs (liver, spleen, bone marrow) (L428 cells; single dose of 80 mg/kg): No tumour cells were observed in any organs
